Measured values as given in ChEMBL document CHEMBL2073847, “Inhibition of the CYP3A4-mediated metabolism and P-glycoprotein-mediated transport of the HIV-1 protease inhibitor saquinavir by grapefruit juice components” (Br J Clin Pharmacol, 1999).

Columns and labels:
[1] = biological target: T1, ATP-dependent translocase ABCB1 (Homo sapiens, UniProt P08183); assay: TP_TRANSPORTER: inhibition of Saquinavir transepithelial transport (basal to apical) in Caco-2 cells; format: functional, cell-based
T1 sequence (P08183 whole entry): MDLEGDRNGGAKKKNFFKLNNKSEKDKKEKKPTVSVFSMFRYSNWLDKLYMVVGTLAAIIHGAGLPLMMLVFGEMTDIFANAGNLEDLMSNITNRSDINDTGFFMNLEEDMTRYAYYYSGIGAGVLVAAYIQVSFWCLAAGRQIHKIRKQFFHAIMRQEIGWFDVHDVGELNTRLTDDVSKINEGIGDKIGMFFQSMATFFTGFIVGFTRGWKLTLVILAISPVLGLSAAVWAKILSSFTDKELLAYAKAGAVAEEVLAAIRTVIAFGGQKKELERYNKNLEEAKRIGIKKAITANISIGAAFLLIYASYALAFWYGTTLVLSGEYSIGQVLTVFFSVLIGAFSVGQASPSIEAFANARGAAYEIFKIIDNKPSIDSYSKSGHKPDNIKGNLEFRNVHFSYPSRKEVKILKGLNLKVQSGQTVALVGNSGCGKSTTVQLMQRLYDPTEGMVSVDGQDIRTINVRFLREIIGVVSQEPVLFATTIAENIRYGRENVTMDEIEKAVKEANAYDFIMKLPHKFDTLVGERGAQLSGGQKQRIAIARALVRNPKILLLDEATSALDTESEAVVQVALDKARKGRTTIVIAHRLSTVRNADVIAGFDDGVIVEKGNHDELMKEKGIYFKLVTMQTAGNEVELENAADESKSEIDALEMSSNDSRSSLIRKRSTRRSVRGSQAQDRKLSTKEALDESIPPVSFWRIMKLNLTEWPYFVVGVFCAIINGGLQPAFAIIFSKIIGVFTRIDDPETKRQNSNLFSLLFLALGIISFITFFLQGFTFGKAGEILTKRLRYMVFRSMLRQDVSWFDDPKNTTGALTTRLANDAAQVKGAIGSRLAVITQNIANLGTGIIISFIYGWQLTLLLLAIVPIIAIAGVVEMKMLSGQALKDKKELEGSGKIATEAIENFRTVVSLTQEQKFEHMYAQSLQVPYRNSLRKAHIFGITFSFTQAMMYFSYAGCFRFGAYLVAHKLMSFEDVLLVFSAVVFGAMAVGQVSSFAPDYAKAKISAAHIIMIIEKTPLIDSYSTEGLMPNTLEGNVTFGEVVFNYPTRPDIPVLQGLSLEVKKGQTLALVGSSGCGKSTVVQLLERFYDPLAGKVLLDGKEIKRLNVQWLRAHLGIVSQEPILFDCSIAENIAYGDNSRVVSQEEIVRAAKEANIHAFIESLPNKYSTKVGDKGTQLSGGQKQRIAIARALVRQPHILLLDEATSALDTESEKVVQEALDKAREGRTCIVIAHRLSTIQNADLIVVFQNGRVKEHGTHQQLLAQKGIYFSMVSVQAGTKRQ

[2] = biological target: T1, ATP-dependent translocase ABCB1; assay: TP_TRANSPORTER: transepithelial transport (basal to apical) in Caco-2 cells; format: functional, cell-based

SMILES	Activity [1]	Activity [2]
C/C(=C\COc1c2ccoc2cc2oc(=O)ccc12)CC[C@@H](O)C(C)(C)O	is not an inhibitor [-]	
CC(C)=CCC/C(C)=C/COc1c2ccoc2cc2oc(=O)ccc12 [BERGAMOTTIN]	is not an inhibitor [-]	
O=C1C[C@@H](c2ccc(O)cc2)Oc2cc(O)cc(O)c21 [NARINGENIN]	inhibitor [+]	
C[C@@H]1O[C@@H](O[C@H]2[C@H](Oc3cc(O)c4c(c3)O[C@H](c3ccc(O)cc3)CC4=O)O[C@H](CO)[C@@H](O)[C@@H]2O)[C@H](O)[C@H](O)[C@H]1O [NARINGIN]	inhibitor [+]	
CC(C)(C)NC(=O)[C@@H]1C[C@@H]2CCCC[C@@H]2CN1C[C@@H](O)[C@H](Cc1ccccc1)NC(=O)[C@H](CC(N)=O)NC(=O)c1ccc2ccccc2n1 [SAQUINAVIR]		substrate [+]
